# In patent US20260256756A1, “USE OF PIPERIDINE ALKENE COMPOUND IN PREPARATION OF DRUG FOR TREATING CANCER” (JIANGSU HANSOH PHARMACEUTICAL GROUP CO., LTD., priority 2023, published 2026):
# System: human colorectal cancer cell line DLD-1 BRCA2−/− xenograft tumor
# Test: Subcutaneous xenograft tumor model of human colorectal cancer cell line DLD-1 BRCA2−/−
# Type: in vivo, BALB/c nude mice
# Settings: DLD-1 BRCA2 deletion
# Source text: • 1. Experimental objective: To evaluate the in vivo efficacy of compound 1 in a subcutaneous xenograft tumor model of human colorectal cancer cell line DLD-1 BRCA2^−/− in nude mice. • 2. Reagent • RPMI-1640 medium (22400-089, Gibco), fetal bovine serum (FBS) (10099-141C, Gibco) • Phosphate buffer (PBS, 10010-023, Gibco), HPMC (D180HB4005, Shanghai Colorcon Coating Technology Ltd.) • 0.25% Trypsin-EDTA (25200-056, Gibco), Pen Strep (P/S) (15140-122, Gibco) • 3. Experimental operations and data processing • 3.1 Animals: BALB/c nude mice, 6-8 weeks old, female, purchased from the Laboratory Animal Business Department of Shanghai Institute of Planned Parenthood Research. • 3.2 Cell culture and cell suspension preparation • a. A vial of DLD-1 BRCA2^−/− cells was taken from a cell bank, the cells were thawed with RPMI-1640 medium (RPMI-1640+10% FBS), and the thawed cells were placed in a cell culture flask (with the cell type, date, the name of the culture operator, etc., being marked on the wall of the flask), which were placed in a CO2 incubator for culturing (wherein the temperature of the incubator was 37° C., and the CO2 concentration was 5%). • b. The cells were passaged every three days, and after passage, the cells were placed in the CO2 incubator to continue the culture. This process was repeated until the cell number met the requirements for in vivo efficacy. • c. The cultured cells were collected, counted using a full-automatic cell counter, and resuspended with PBS on the basis of the counting results to prepare a cell suspension (at a density of 5×10^7/mL), which was then placed in an ice box for later use. • 3.3 Cell inoculation • a. Before inoculation, the nude mice were marked with disposable universal ear tags for mice and rats. • b. At the time of inoculation, the cell suspension was mixed uniformly, 0.1-1 mL of the cell suspension was aspirated using a 1 mL syringe with air bubbles expelled, and the syringe was then placed on an ice bag for later use. • c. The nude mouse was secured with the left hand, the right dorsal area near the right shoulder (inoculation site) of the nude mouse was disinfected with a 75% alcohol cotton ball, and inoculation was initiated after 30 seconds. • d. The experimental nude mice were inoculated sequentially (0.1 mL of cell suspension per mouse). • 3.4 Tumor measurement, grouping and administration in tumor-bearing mice • a. Tumor was measured on days 10-18 after inoculation depending on the tumor growth, and the tumor size was calculated.
# tumor volume (mm^3)=length (mm)×width (mm)×width (mm)/2 Tumor volume calculation: • b. According to the body weight of tumor-bearing mice and the size of the tumor, the mice were grouped by random grouping. • c. According to the grouping results, the test drug was started to be administered (administration method: oral administration; administration volume: 10 mL/kg; administration frequency: once/day; administration cycle: 28 days; vehicle: 0.5% HPMC). • d. Tumor measurement and weighing were performed twice a week after starting administration of test drugs. • e. The animals were euthanized at the end of the experiment. • f. Data processing was performed using software such as GraphPad Prism. The tumor inhibitory efficacy of the compound was evaluated by TGI (%) and ΔT/ΔC (%). ΔT/ΔC (%)=(T−T0)/(C−C0)×100, where T and C are the tumor volumes of the treatment group and the vehicle control group at the end of the experiment, respectively, and T0 and C0 are the tumor volumes of the treatment group and the vehicle control group at the beginning of the experiment, respectively. Tumor growth inhibition (TGI) (%)=100−ΔT/ΔC (%). Tumor growth inhibition (TGI) (%)=100−(T−T0)/T0×100 when tumor regression occurs • 4. Experimental results and conclusions
# [1] = 100 mg/kg oral once/day, Day 28
# [2] = 0.3 mg/kg oral once/day, Day 28
compound,measurement,setting,value
O=C(c1cc(Cc2n[nH]c(=O)c3ccccc23)ccc1F)N1CCN(C(=O)C2CC2)CC1 [Olaparib],Tumor volume (Mean ± SEM),"100 mg/kg oral once/day, Day 0",154 ± 13 mm^3
same,T/C,[1],63.43%
same,TGI,[1],40.81%
same,Tumor volume (Mean ± SEM),[1],942 ± 112 mm^3
CCc1cc2ncc(CN3CCN(c4ccc(C(=O)NC)nc4)CC3)cc2[nH]c1=O [AZD5305],Tumor volume (Mean ± SEM),"0.3 mg/kg oral once/day, Day 0",154 ± 12 mm^3
same,T/C,[2],6.20%
same,TGI,[2],140.20%
same,Tumor volume (Mean ± SEM),[2],92 ± 22 mm^3
